According to ChEMBL document CHEMBL4483862, “Open-source discovery of chemical leads for next-generation chemoprotective antimalarials” (2018):

System: Plasmodium berghei
Assay: Luciferase/luciferin-expressing antifolate-resistant parasites were used to infect a culture of HepG2 cells that were pre-incubated with compounds. Infected hepatocytes emit light due to the luciferase reaction. Assay results are presented as the percent inhibition of light emission compared to control. […]
Assay type: functional
Settings: sporozoite; for IC90: read-out: LUCIFERASE INFECTION ASSAY - IC90
[1] = read-out: LUCIFERASE INFECTION ASSAY - IC50

O=C(Nc1ccc(Cl)cc1)Nc1csc([N+](=O)[O-])c1
IC50 (HEPG2TOX_HILL_SLOPE 14.4, HEPG2TOX_R_SQUARED 0.942, PBLUC_HILL_SLOPE 1.2, PBLUC_R_SQUARED 0.682, read-out: LUCIFERASE INFECTION ASSAY - IC50): 1.62 µM | IC90: 10 µM

CCC(C)(C)c1ccc(Oc2ccc(NC(=O)CN3c4cccc5cccc(c45)S3(=O)=O)cc2)cc1
IC50 [1]: > 10 µM | IC90: > 10 µM

Cc1ccc(S(=O)(=O)Oc2cc(C)ccc2C)cc1
IC50 (PBLUC_HILL_SLOPE 0.836, PBLUC_R_SQUARED 0.347, read-out: LUCIFERASE INFECTION ASSAY - IC50): 4.27 µM | IC90: > 11.9 µM

O=C(Nc1ccccc1C(=O)OCN1C(=O)c2ccccc2C1=O)c1ccc([N+](=O)[O-])cc1Cl
IC50 [1]: > 10 µM | IC90: > 10 µM

O=C(Cc1noc2ccccc12)N1CCN(c2ccc(C(F)(F)F)cn2)CC1
IC50 [1]: > 10 µM | IC90: > 10 µM

COc1cccc(C(=O)N(c2nc3ccccc3s2)c2c(C)cccc2C)c1
IC50 (PBLUC_HILL_SLOPE 0.58, PBLUC_R_SQUARED 0.199, read-out: LUCIFERASE INFECTION ASSAY - IC50): > 10 µM | IC90: > 10 µM

CC(=O)NCCC(=O)N(c1ccc(Oc2ccccc2)cc1)c1nc2ccccc2s1
IC50 (PBLUC_HILL_SLOPE 4.74, PBLUC_R_SQUARED 0.599, read-out: LUCIFERASE INFECTION ASSAY - IC50): 6.78 µM | IC90: > 10 µM

Clc1cccc(-c2cc3[nH]c(NCc4ccccc4)nc3cn2)c1
IC50 [1]: > 10 µM | IC90: > 10 µM

Cc1cc(C)n(-c2ccc([N+](=O)[O-])cc2S(=O)(=O)N(CC(=O)N2CCCc3ccccc32)c2ccc(Cl)cc2)n1
IC50 (FFLUC_HILL_SLOPE 9.12, FFLUC_R_SQUARED 0.891, HEPG2TOX_HILL_SLOPE 1.68, HEPG2TOX_R_SQUARED 0.248, PBLUC_HILL_SLOPE 7.9, PBLUC_R_SQUARED 0.762, read-out: LUCIFERASE INFECTION ASSAY - IC50): 3.56 µM | IC90: 4.71 µM

Clc1ccccc1CN(Cc1nc2ccccc2[nH]1)Cc1nc2ccccc2[nH]1
IC50 (FFLUC_HILL_SLOPE 12.2, FFLUC_R_SQUARED 0.134, HEPG2TOX_HILL_SLOPE 11.4, HEPG2TOX_R_SQUARED 0.932, PBLUC_HILL_SLOPE 13.3, PBLUC_R_SQUARED 0.326, read-out: LUCIFERASE INFECTION ASSAY - IC50): 3.67 µM | IC90: 4.32 µM

C/C(=N\NC(N)=S)c1csc(-c2ccccc2)n1
IC50 (HEPG2TOX_HILL_SLOPE 1.53, HEPG2TOX_R_SQUARED 0.983, PBLUC_HILL_SLOPE 21.6, PBLUC_R_SQUARED 0.0721, read-out: LUCIFERASE INFECTION ASSAY - IC50): 10.7 µM | IC90: 11.9 µM

CCN1C(=O)N(CCCc2cccnc2)C(=O)C12CCN(Cc1ccc(-c3ccccc3C)cc1)CC2
IC50 (HEPG2TOX_HILL_SLOPE 4.7, HEPG2TOX_R_SQUARED 0.961, PBLUC_HILL_SLOPE 9.72, PBLUC_R_SQUARED 0.497, read-out: LUCIFERASE INFECTION ASSAY - IC50): 2.14 µM | IC90: 2.68 µM

Cc1nn(C(C)(C)C)c2c1C(c1ccc3c(c1)OCO3)C1C(=O)CC(C)(C)CC1=N2 (stereo not drawn)
IC50 (HEPG2TOX_HILL_SLOPE 2.55, HEPG2TOX_R_SQUARED 0.436, read-out: LUCIFERASE INFECTION ASSAY - IC50): > 10 µM | IC90: > 10 µM

O=C(O)c1ccc(Cl)cc1Oc1ccccc1
IC50 (FFLUC_HILL_SLOPE 1.52, FFLUC_R_SQUARED 0.302, read-out: LUCIFERASE INFECTION ASSAY - IC50): > 13.3 µM | IC90: > 13.3 µM

CC(=O)Nc1cccc(-c2cn3c(-c4ccc(Oc5ccccc5)cc4)cnc3cn2)c1
IC50 (HEPG2TOX_HILL_SLOPE 0.0216, HEPG2TOX_R_SQUARED 0.0103, PBLUC_HILL_SLOPE 2.46, PBLUC_R_SQUARED 0.352, read-out: LUCIFERASE INFECTION ASSAY - IC50): > 7.85 µM | IC90: > 7.85 µM

COc1ccc(CCNc2nc(C)nc3sc(-c4ccccc4)cc23)cc1OC
IC50 (HEPG2TOX_HILL_SLOPE 6.76, HEPG2TOX_R_SQUARED 0.162, read-out: LUCIFERASE INFECTION ASSAY - IC50): > 10 µM | IC90: > 10 µM

NS(=O)(=O)c1ccc(CCNc2nn3c(-c4cccs4)cnc3s2)cc1
IC50 (HEPG2TOX_HILL_SLOPE 6.48, HEPG2TOX_R_SQUARED 0.0577, read-out: LUCIFERASE INFECTION ASSAY - IC50): > 8.14 µM | IC90: > 8.14 µM

O=C(Nc1ccc(OC(F)(F)F)cc1)Nc1ccccc1SCC(O)Cn1ccc(C(F)(F)F)n1 (stereo not drawn)
IC50 (PBLUC_HILL_SLOPE 15.1, PBLUC_R_SQUARED 0.225, read-out: LUCIFERASE INFECTION ASSAY - IC50): 5.88 µM | IC90: > 6.34 µM

C=CCn1c2ccccc2c2ccccc21
IC50 (FFLUC_HILL_SLOPE 10.4, FFLUC_R_SQUARED 0.117, read-out: LUCIFERASE INFECTION ASSAY - IC50): > 15.9 µM | IC90: > 15.9 µM

CS(=O)(=O)Nc1cccc(-c2cn3c(-c4ccc(CO)cc4)cnc3cn2)c1
IC50 (PBLUC_HILL_SLOPE 16.4, PBLUC_R_SQUARED 0.351, read-out: LUCIFERASE INFECTION ASSAY - IC50): 7.12 µM | IC90: 8.14 µM

CN(CC(=O)Nc1ccc(Cl)c(S(=O)(=O)N2CCCCC2)c1)C1CCc2ccccc21 (stereo not drawn)
IC50 (PBLUC_HILL_SLOPE 13.6, PBLUC_R_SQUARED 0.21, read-out: LUCIFERASE INFECTION ASSAY - IC50): 9.96 µM | IC90: > 10 µM

COc1ccc(Cl)cc1NS(=O)(=O)c1cccc(C(=O)OC(C)C(=O)c2cc(C)n(-c3ccccc3)c2C)c1 (stereo not drawn)
IC50 [1]: > 10 µM | IC90: > 10 µM

O=S(=O)(N=C1c2ccccc2/C(=N/S(=O)(=O)c2ccc(Cl)cc2)C2C3C=CC(CC3)C12)c1ccc(Cl)cc1 (stereo not drawn)
IC50 [1]: 8.44 µM | IC90: > 10 µM

CN(C)c1cccc(NCC2(c3ccnc(-c4ccccc4Cl)c3)CC2)c1
IC50 [1]: > 10 µM | IC90: > 10 µM

COCc1nn2c3c(nnc2c1-c1ccccc1)C(=O)CC(c1ccccc1)C3 (stereo not drawn)
IC50 (FFLUC_HILL_SLOPE 8, FFLUC_R_SQUARED 0.814, HEPG2TOX_HILL_SLOPE 2.3, HEPG2TOX_R_SQUARED 0.367, PBLUC_HILL_SLOPE 4.06, PBLUC_R_SQUARED 0.599, read-out: LUCIFERASE INFECTION ASSAY - IC50): 1.92 µM | IC90: 3.29 µM

CC(C)(C)c1ccc(/C=C2\CCc3c2nc2ccccc2c3C(=O)OCC(=O)NNC(=O)c2ccccc2F)cc1
IC50 (PBLUC_HILL_SLOPE 2.93, PBLUC_R_SQUARED 0.289, read-out: LUCIFERASE INFECTION ASSAY - IC50): 2.58 µM | IC90: 5.46 µM

CCOc1ccc(C(=O)CN(C#N)C(=O)c2ccccc2)cc1
IC50 (HEPG2TOX_HILL_SLOPE 0.95, HEPG2TOX_R_SQUARED 0.917, PBLUC_HILL_SLOPE 159, PBLUC_R_SQUARED 0.609, read-out: LUCIFERASE INFECTION ASSAY - IC50): 0.747 µM | IC90: 0.758 µM

COc1ccc(-c2nn(-c3ccccc3)cc2/C=C/C(=O)N2CCc3ccccc32)cc1OC
IC50 [1]: > 10 µM | IC90: > 10 µM

CCCCc1ccc(C(=O)Nc2nc3ccccn3c2C(=O)NCCCN2CCOCC2)cc1
IC50 (PBLUC_HILL_SLOPE 0.361, PBLUC_R_SQUARED 0.518, read-out: LUCIFERASE INFECTION ASSAY - IC50): 2.21 µM | IC90: > 7.12 µM

Cc1ccc2c(c1)NC(C)c1ccccc1O2 (stereo not drawn)
IC50 (FFLUC_HILL_SLOPE 2.08, FFLUC_R_SQUARED 0.224, HEPG2TOX_HILL_SLOPE 6.95, HEPG2TOX_R_SQUARED 0.413, PBLUC_HILL_SLOPE 13.7, PBLUC_R_SQUARED 0.727, read-out: LUCIFERASE INFECTION ASSAY - IC50): 8.91 µM | IC90: > 10 µM

Cc1ccc(-c2cnc3ccc(NCc4cccs4)nn23)cc1
IC50 (PBLUC_HILL_SLOPE 1.88, PBLUC_R_SQUARED 0.642, read-out: LUCIFERASE INFECTION ASSAY - IC50): 4.8 µM | IC90: > 10.3 µM

Cc1nc2ccccn2c1C(=O)N/N=C/c1ccccc1O
IC50 [1]: 10.1 µM | IC90: > 11.2 µM

COc1cc(NCc2cc(Cl)cc(Cl)c2OC)ccc1NC(=O)C(C)C
IC50 (HEPG2TOX_HILL_SLOPE 3.35, HEPG2TOX_R_SQUARED 0.946, PBLUC_HILL_SLOPE 1.13, PBLUC_R_SQUARED 0.756, read-out: LUCIFERASE INFECTION ASSAY - IC50): 1.15 µM | IC90: 8.02 µM

CCCNC(=O)c1c(NC(=O)c2cc(F)cc(F)c2)nc2ccccn12
IC50 (FFLUC_HILL_SLOPE 41.4, FFLUC_R_SQUARED 0.343, HEPG2TOX_HILL_SLOPE 1.12, HEPG2TOX_R_SQUARED 0.682, PBLUC_HILL_SLOPE 5.41, PBLUC_R_SQUARED 0.415, read-out: LUCIFERASE INFECTION ASSAY - IC50): 1.63 µM | IC90: 2.45 µM

C=CCn1c(SC(C(=O)c2c[nH]c3ccccc23)c2ccccc2)nc2sc(C)c(C)c2c1=O (stereo not drawn)
IC50 (FFLUC_HILL_SLOPE 2.34, FFLUC_R_SQUARED 0.404, HEPG2TOX_HILL_SLOPE 0.632, HEPG2TOX_R_SQUARED 0.765, PBLUC_HILL_SLOPE 19.2, PBLUC_R_SQUARED 0.592, read-out: LUCIFERASE INFECTION ASSAY - IC50): 3.33 µM | IC90: 3.74 µM

Cc1ccc(O)c(C(=O)NCCC(C)C)c1
IC50 (HEPG2TOX_HILL_SLOPE 0.253, HEPG2TOX_R_SQUARED 0.657, PBLUC_HILL_SLOPE 0.85, PBLUC_R_SQUARED 0.659, read-out: LUCIFERASE INFECTION ASSAY - IC50): 2.35 µM | IC90: > 10 µM

Nc1ccc(-c2cn3c(-c4ccc(Oc5ccccc5)cc4)cnc3cn2)cn1
IC50 (HEPG2TOX_HILL_SLOPE 7.27, HEPG2TOX_R_SQUARED 0.167, PBLUC_HILL_SLOPE 11.9, PBLUC_R_SQUARED 0.186, read-out: LUCIFERASE INFECTION ASSAY - IC50): 7.28 µM | IC90: > 8.7 µM

CCCCNC(=O)NCCc1ccc2c(c1)OCCO2
IC50 [1]: > 10 µM | IC90: > 10 µM

CC(C)Cc1ccc(C(C)c2nn3c(-c4cccnc4)nnc3s2)cc1 (stereo not drawn)
IC50 (HEPG2TOX_HILL_SLOPE 0.365, HEPG2TOX_R_SQUARED 0.691, PBLUC_HILL_SLOPE 1.54, PBLUC_R_SQUARED 0.896, read-out: LUCIFERASE INFECTION ASSAY - IC50): 1.31 µM | IC90: 5.44 µM
